Experimental data reported in US12637476B2, “Substituted carbamate macrocyclic compounds and related methods of treatment” (Alkermes, Inc., priority 2021, dated 2026).

Target: T1, human orexin-2 receptor (OX2R) (Homo sapiens, UniProt O43614)
T1 construct: expressed in transfected cells; host or cells: T-Rex CHO cells, induced with doxycycline
T1 sequence (O43614 1-444): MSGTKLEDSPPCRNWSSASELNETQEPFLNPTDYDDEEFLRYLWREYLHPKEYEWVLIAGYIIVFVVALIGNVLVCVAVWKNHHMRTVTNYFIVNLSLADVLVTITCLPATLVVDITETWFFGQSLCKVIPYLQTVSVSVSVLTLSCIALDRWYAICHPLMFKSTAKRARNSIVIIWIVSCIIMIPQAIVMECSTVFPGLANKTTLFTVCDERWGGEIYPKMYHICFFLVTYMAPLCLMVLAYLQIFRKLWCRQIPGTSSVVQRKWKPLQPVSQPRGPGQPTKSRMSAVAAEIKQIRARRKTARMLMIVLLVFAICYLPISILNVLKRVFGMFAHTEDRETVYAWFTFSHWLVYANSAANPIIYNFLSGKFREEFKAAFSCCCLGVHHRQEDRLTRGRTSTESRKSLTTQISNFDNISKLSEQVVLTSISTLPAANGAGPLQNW
Assay: Human OX2R IP1 assay
Assay type: cell-based
Conditions: T-Rex CHO cells stably overexpressing human OX2R, IP1 accumulation, 1 hr at 37 degrees C
Method: T-Rex CHO cells stably overexpressing the human orexin-2 receptor (OX2R) were induced overnight with 1 μg/mL of doxycycline in a T225 flask. 24 hours post induction, cells were lifted with accutase and plated into a 384-well proxy plate at 30,000 cells/well. Cells were then treated with different test compounds in 1× stimulation buffer containing 10 mM Hepes, 1 mM CaCl2, 0.5 mM MgCl2, 4.2 mM KCl, 146 mM NaCl, 5.5 mM glucose, and 50 mM LiCl, pH 7.4, for 1 hr at 37 degrees C. Following incubation, the reaction was terminated by the addition of detection mix, which is composed of IP1-d2 and anti-IP1-cryptate diluted in lysis buffer as well as 1× stimulation buffer. The plates were allowed to incubate for 1 hour at room temperature and were then read in the EnVision® multimode plate reader, measuring inositol phosphate levels.
Cisbio IP1 is a cell-based functional assay quantifying the accumulation of inositol monophosphate (IP), a metabolite released as a result of orexin 2 receptor activation through the phospholipase C-Gq signaling pathway. This is a competitive immunoassay in which the IP1 produced by the cells upon receptor activation competes with the IP1 analog coupled to the d2 fluorophore (acceptor) for binding to an anti-IP1 monoclonal antibody labeled with Eu cryptate (donor). The measured HTRF-FRET based signal is inversely proportional to the IP1 concentration produced.
The EC50 values reported in Table 2 were obtained according to the human OX2R IP1 assay described above. Data are the mean EC50 values±S.E.M.

Compound	EC50 [µM]
CN1C(=O)OCC(=O)N2CCC[C@H](NS(C)(=O)=O)[C@@H]2CO[C@H]2CC[C@@H]1CC2 [Compound 2]	0.1 to 1
CCN1C(=O)OCC(=O)N2CCC[C@H](NS(C)(=O)=O)[C@@H]2CO[C@H]2CC[C@@H]1CC2 [Compound 1]	0.1 to 1

More lines, now with the values ahead:

EC50 [µM]	Compound
0.1 to 1	CS(=O)(=O)N[C@H]1CCCN2C(=O)COC(=O)N(C3CC3)[C@H]3CC[C@H](CC3)OC[C@@H]12 [Compound 3]
> 1	CS(=O)(=O)N[C@H]1CCCN2C(=O)COC(=O)N(CC(F)(F)F)[C@H]3CC[C@H](CC3)OC[C@@H]12 [Compound 11]
0.1 to 1	CS(=O)(=O)N[C@H]1CCCN2C(=O)COC(=O)N(CC3CC3)[C@H]3CC[C@H](CC3)OC[C@@H]12 [Compound 10]
